Test results as given in PubChem BioAssay AID1963422 (Molecular Pharmacology Branch, DTP, NCI, 2024).
pIC50: −log10 of the molar value.

System: 463943-066-T-J2-PDC complex spheroid growth
Experiment: Anticancer human tumor 463943-066-T-J2-PDC patient-derived colon adenocarcinoma cell line growth inhibition [Asc]
Details: for pIC50: curve of first compound; for viability, T/C: stronger effect = lower value
Method in brief: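 Complex solid-tumor spheroids incorporating human endothelial and mesenchymal stem cells received single agents or combinations over half-log dilution ranges anchored to clinical Cmax.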
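Note: compound exposure lasted 7 days.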
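Throughout, for viability, T/C: 100% = DMSO vehicle control wells.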

COc1c(OCCCN2CCOCC2)ccc2c3n(c(=NC(=O)c4cnc(N)nc4)nc12)CCN3 + CCN1C(C(=O)NC23CCC(C(=O)O)(CC2)CC3)C(c2cccc(Cl)c2F)C2(C(=O)Nc3cc(Cl)ccc32)C12CCCCC2
pIC50 (second compound 0.00949 µM): 6.39 | pIC50 (second compound 0.03 µM): 6.57 | pIC50 (second compound 0.0949 µM): 6.64 | pIC50 (second compound 0.3 µM): 7.15 | pIC50 (second compound 0.949 µM): 7.35 | pIC50 (second compound 3 µM): 7.22 | viability, T/C (second compound 0.00949 µM, first compound 0.00316 µM): 89.5% | viability, T/C (second compound 0.00949 µM, first compound 0.01 µM): 82.9% | viability, T/C (second compound 0.00949 µM, first compound 0.0316 µM): 74% | viability, T/C (second compound 0.00949 µM, first compound 0.1 µM): 69.2% | viability, T/C (second compound 0.00949 µM, first compound 0.316 µM): 51.2% | viability, T/C (second compound 0.00949 µM, first compound 1 µM): 39.4% | viability, T/C (second compound 0.03 µM, first compound 0.00316 µM): 95.3% | viability, T/C (second compound 0.03 µM, first compound 0.01 µM): 88.5% | viability, T/C (second compound 0.03 µM, first compound 0.0316 µM): 71.5% | viability, T/C (second compound 0.03 µM, first compound 0.1 µM): 61.2% | viability, T/C (second compound 0.03 µM, first compound 0.316 µM): 50.3% | viability, T/C (second compound 0.03 µM, first compound 1 µM): 33.7% | viability, T/C (second compound 0.0949 µM, first compound 0.00316 µM): 87.3% | viability, T/C (second compound 0.0949 µM, first compound 0.01 µM): 84.1% | viability, T/C (second compound 0.0949 µM, first compound 0.0316 µM): 71.4% | viability, T/C (second compound 0.0949 µM, first compound 0.1 µM): 59.3% | viability, T/C (second compound 0.0949 µM, first compound 0.316 µM): 47.4% | viability, T/C (second compound 0.0949 µM, first compound 1 µM): 33.6% | viability, T/C (second compound 0.3 µM, first compound 0.00316 µM): 73% | viability, T/C (second compound 0.3 µM, first compound 0.01 µM): 72.5% | viability, T/C (second compound 0.3 µM, first compound 0.0316 µM): 61.9% | viability, T/C (second compound 0.3 µM, first compound 0.1 µM): 44.4% | viability, T/C (second compound 0.3 µM, first compound 0.316 µM): 37.1% | viability, T/C (second compound 0.3 µM, first compound 1 µM): 32% | viability, T/C (second compound 0.949 µM, first compound 0.00316 µM): 68.5% | viability, T/C (second compound 0.949 µM, first compound 0.01 µM): 62.5% | viability, T/C (second compound 0.949 µM, first compound 0.0316 µM): 53.4% | viability, T/C (second compound 0.949 µM, first compound 0.1 µM): 42.2% | viability, T/C (second compound 0.949 µM, first compound 0.316 µM): 35.1% | viability, T/C (second compound 0.949 µM, first compound 1 µM): 30.4% | viability, T/C (second compound 3 µM, first compound 0.00316 µM): 65.3% | viability, T/C (second compound 3 µM, first compound 0.01 µM): 64.4% | viability, T/C (second compound 3 µM, first compound 0.0316 µM): 53.7% | viability, T/C (second compound 3 µM, first compound 0.1 µM): 45.4% | viability, T/C (second compound 3 µM, first compound 0.316 µM): 39.1% | viability, T/C (second compound 3 µM, first compound 1 µM): 29.8%
